Assay results published in ChEMBL document CHEMBL2169778, “Small molecule inhibitors of signal transducer and activator of transcription 3 (Stat3) protein” (J Med Chem, 2012).
Each block holds one molecule with its values, some of them ahead of it. Where a SMILES comes first, the peptide text is derived from it. [ ]: non-standard residue; d: D form. The star is where a group is joined. Pro(3S,4R-methano) = O=C(O)[C@H]1NC[C@@H]2C[C@@H]21; pY = N[C@@H](Cc1ccc(OP(=O)(O)O)cc1)C(=O)O; Hydrocinnamoyl = O=C(CCc1ccccc1)*; NHBn = c1ccc(CN*)cc1

Experiments:
[1] = Cytotoxicity against human SNU182 cells with impaired TGFbeta pathway assessed as growth inhibition at 250 uM after 72 hrs by MTT assay; format: functional, cell-based; conditions: SNU-182
[2] = test system: Huh-7; experiment: Cytotoxicity against human HuH7 cells with impaired TGFbeta pathway assessed as growth inhibition at 250 uM after 72 hrs by MTT assay; format: functional; conditions: Huh-7, 72 h, read-out: GI
[3] = test system: SNU-398; experiment: Cytotoxicity against human SNU398 cells with impaired TGFbeta pathway assessed as growth inhibition at 250 uM after 72 hrs by MTT assay; format: functional; conditions: SNU-398, 72 h, read-out: GI
[4] = Cytotoxicity against human PLC/PRF/5 cells with intact TGFbeta pathway assessed as growth inhibition at 250 uM after 72 hrs by MTT assay; format: functional, cell-based
[5] = test system: HepG2; experiment: Cytotoxicity against human HepG2 cells with intact TGFbeta pathway assessed as growth inhibition at 250 uM after 72 hrs by MTT assay; format: functional; conditions: HepG2, 72 h, read-out: GI
[6] = test system: SNU-475; experiment: Cytotoxicity against human SNU475 cells with impaired TGFbeta pathway assessed as growth inhibition at 250 uM after 72 hrs by MTT assay; format: functional; conditions: SNU-475, 72 h, read-out: GI
[7] = test system: SNU-449; experiment: Cytotoxicity against human SNU449 cells with intact TGFbeta pathway assessed as growth inhibition at 250 uM after 72 hrs by MTT assay; format: functional; conditions: SNU-449, 72 h, read-out: GI
[8] = biological target: T1, Signal transducer and activator of transcription 3 (Mus musculus, UniProt P42227); experiment: Inhibition of STAT3 dimerization in v-Src transformed mouse NIH/3T3 cells overexpressing human EGFR assessed as suppression of STAT3-DNA interaction in nucleus after 30 mins by EMSA; format: cell-based, NIH3T3
T1 sequence (P42227 whole entry): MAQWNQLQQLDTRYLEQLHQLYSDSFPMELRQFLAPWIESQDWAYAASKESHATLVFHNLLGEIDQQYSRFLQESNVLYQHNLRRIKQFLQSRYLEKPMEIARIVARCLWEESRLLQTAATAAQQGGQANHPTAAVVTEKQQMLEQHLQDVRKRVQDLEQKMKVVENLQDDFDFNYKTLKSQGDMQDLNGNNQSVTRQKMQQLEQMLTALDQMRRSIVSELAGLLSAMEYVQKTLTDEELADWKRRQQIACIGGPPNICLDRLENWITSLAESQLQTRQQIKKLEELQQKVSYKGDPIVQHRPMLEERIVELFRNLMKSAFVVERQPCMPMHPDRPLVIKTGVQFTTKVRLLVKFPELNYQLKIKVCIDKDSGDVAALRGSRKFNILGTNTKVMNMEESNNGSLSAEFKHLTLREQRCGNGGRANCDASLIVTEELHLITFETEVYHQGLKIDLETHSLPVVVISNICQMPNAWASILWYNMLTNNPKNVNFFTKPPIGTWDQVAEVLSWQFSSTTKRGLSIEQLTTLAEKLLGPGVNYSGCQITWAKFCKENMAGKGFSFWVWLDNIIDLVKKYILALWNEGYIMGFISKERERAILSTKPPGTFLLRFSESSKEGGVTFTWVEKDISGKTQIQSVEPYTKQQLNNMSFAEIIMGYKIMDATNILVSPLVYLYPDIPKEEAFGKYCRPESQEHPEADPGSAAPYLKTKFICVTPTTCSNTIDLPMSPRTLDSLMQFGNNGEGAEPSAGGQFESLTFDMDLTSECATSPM

[9] = biological target: T2, Signal transducer and activator of transcription 3 (Homo sapiens, UniProt P40763); experiment: Inhibition of IL6-mediated STAT3 phosphorylation in human HepG2 cells preincubated for 1 hr prior to IL6 challenge measured after 30 mins by immunoblot analysis; format: cell-based
T2 sequence (P40763 whole entry): as the sequence (P42227 whole entry) above, with D760E counted along it

[10] = biological target: T2, Signal transducer and activator of transcription 3; experiment: Inhibition of recombinant STAT3 assessed as inhibition of STAT3-phosphododecapeptide interaction by SPR analysis
[11] = biological target: T2, Signal transducer and activator of transcription 3; experiment: Inhibition of STAT3 SH2 domain assessed as inhibition of STAT3 SH2-phosphotyrosine interaction by AlphaScreen assay
[12] = biological target: T3, Signal transducer and activator of transcription 1-alpha/beta (Homo sapiens, UniProt P42224); experiment: Inhibition of STAT1 SH2 domain assessed as inhibition of STAT1 SH2-phosphotyrosine interaction by AlphaScreen assay
T3 sequence (P42224 whole entry): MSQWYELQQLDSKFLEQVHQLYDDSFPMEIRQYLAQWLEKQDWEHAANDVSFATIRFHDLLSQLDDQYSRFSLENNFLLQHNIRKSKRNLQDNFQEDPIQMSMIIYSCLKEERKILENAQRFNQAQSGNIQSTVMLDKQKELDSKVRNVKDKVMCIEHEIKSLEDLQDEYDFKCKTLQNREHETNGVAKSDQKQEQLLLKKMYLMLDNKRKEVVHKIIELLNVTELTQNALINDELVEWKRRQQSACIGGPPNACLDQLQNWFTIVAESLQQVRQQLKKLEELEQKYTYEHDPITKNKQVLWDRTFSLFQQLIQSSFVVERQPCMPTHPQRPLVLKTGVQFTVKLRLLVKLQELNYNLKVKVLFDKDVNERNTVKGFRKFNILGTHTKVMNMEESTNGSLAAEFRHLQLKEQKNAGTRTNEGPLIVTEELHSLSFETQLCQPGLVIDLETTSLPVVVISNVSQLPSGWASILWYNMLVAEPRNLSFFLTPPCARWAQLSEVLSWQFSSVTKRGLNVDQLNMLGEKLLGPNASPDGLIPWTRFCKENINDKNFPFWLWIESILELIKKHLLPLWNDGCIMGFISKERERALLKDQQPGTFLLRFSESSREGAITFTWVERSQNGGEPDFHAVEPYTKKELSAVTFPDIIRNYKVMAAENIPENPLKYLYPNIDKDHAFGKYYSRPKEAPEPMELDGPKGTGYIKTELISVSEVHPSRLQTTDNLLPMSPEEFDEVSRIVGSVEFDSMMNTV

[13] = Binding affinity to full length STAT3alpha by fluorescence polarization assay
[14] = biological target: T2, Signal transducer and activator of transcription 3; experiment: Inhibition of STAT3 SH2 domain assessed as inhibition of STAT3 SH2-phosphotyrosine interaction after 15 mins by fluorescence polarization assay
[15] = Cytotoxicity against mouse TE71 without constitutively active STAT3 after 24 to 144 hrs by trypan blue-staining based phase contrast microscopy
[16] = biological target: T3, Signal transducer and activator of transcription 1-alpha/beta; experiment: Inhibition of STAT1 SH2 domain by fluorescence polarization assay
[17] = test system: MDA-MB-231; experiment: Cytotoxicity against human MDA-MB-231 cells harboring constitutively active STAT3 after 24 to 144 hrs by trypan blue-staining based phase contrast microscopy; format: functional, cell-based
[18] = test system: NIH3T3; experiment: Cytotoxicity against mouse NIH/3T3 cells without constitutively active STAT3 after 24 to 144 hrs by trypan blue-staining based phase contrast microscopy; format: cell-based
[19] = biological target: T1, Signal transducer and activator of transcription 3; experiment: Binding affinity to STAT3 SH2 in v-Src transformed mouse NIH/3T3 cells overexpressing human EGFR; format: cell-based, NIH3T3
[20] = test system: PANC-1; experiment: Cytotoxicity against human PANC1 cells harboring constitutively active STAT3 after 24 to 144 hrs by trypan blue-staining based phase contrast microscopy; format: functional, cell-based
[21] = Cytotoxicity against HPDEC without constitutively active STAT3 after 24 to 144 hrs by trypan blue-staining based phase contrast microscopy; conditions: Homo sapiens
[22] = biological target: T2, Signal transducer and activator of transcription 3; experiment: Inhibition of STAT3 SH2 domain using 5-carboxyfluorescein-GY(PO3H2)LPQTV-NH2 as substrate preincubated for 60 mins prior to substrate addition by fluorescence polarization assay
[23] = biological target: T2, Signal transducer and activator of transcription 3; experiment: Inhibition of STAT3 in human MDA-MB-435 cells at 20 uM after 48 hrs by luciferase reporter gene assay relative to untreated control; format: cell-based
[24] = biological target: Tyrosine-protein kinase JAK2 (Homo sapiens) (UniProt O60674); conditions: at 5 µM
Chain of Tyrosine-protein kinase JAK2 (Homo sapiens) (O60674 whole entry): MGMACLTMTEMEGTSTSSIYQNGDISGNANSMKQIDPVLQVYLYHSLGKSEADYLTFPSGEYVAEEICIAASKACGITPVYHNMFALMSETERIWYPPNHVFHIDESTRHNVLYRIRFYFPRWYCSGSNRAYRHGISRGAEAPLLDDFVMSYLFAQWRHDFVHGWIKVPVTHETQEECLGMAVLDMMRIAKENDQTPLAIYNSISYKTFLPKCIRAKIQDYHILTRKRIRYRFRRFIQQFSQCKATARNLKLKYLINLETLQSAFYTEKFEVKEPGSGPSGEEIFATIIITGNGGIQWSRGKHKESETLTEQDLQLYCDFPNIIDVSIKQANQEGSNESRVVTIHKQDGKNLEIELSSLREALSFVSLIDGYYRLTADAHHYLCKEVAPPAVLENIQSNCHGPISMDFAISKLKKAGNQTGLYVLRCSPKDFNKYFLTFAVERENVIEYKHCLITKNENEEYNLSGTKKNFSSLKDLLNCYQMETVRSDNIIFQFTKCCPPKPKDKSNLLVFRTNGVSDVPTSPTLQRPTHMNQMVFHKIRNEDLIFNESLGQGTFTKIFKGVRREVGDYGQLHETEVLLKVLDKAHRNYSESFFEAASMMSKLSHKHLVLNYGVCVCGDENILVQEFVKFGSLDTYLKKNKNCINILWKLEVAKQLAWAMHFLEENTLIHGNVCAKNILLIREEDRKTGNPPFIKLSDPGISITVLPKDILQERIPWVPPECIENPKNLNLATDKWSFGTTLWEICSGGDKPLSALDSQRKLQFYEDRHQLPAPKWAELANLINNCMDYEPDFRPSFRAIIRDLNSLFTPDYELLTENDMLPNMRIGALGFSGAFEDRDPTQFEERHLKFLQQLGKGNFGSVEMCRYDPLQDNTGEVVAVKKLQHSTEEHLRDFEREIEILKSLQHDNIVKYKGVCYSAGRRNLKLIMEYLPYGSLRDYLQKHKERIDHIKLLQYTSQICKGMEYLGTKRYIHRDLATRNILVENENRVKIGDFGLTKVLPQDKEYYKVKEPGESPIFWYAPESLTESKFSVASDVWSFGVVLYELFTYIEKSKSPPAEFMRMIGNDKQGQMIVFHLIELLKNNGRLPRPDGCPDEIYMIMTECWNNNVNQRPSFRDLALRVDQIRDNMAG
Description: Inhibition of JAK2 at 5 uM by high throughput assay

[25] = biological target: T2, Signal transducer and activator of transcription 3; experiment: Inhibition of STAT3 expressed in human U3A cells after 1 hr by luciferase reporter gene assay; format: cell-based

Compound: Cc1ccc(S(=O)(=O)OCC(=O)Nc2ccc(C(=O)O)c(O)c2)cc1
growth inhibition (GI) [1]: 80%
inhibition of growth at 250 µM [2]: 80%
inhibition of growth at 250 µM [3]: 80%
growth inhibition (GI) [4]: 20%
inhibition of growth at 250 µM [5]: 20%
inhibition of growth at 250 µM [6]: 80%
inhibition of growth at 250 µM [7]: 20%

Compound: CCCCCCNC(=O)c1nc(-c2cccc3ccccc23)oc1Cc1ccc(OP(=O)(O)O)cc1
IC50 [8]: 58 µM

Compound: COc1cccc(NC(=O)c2nc(-c3ccccc3)sc2Cc2ccc(OP(=O)(O)O)cc2)c1
IC50 [8]: 28 µM

Compound: CC(C)C[C@H](NC(=O)[C@H](Cc1ccc(OP(=O)(O)O)cc1)NC(=O)CCc1ccccc1)C(=O)N1C[C@@H]2C[C@@H]2[C@H]1C(=O)N[C@@H](CCC(N)=O)C(=O)NCc1ccccc1 (Hydrocinnamoyl-[pY]L[Pro(3S,4R-methano)]Q-NHBn)
Ki [13]: 125 nM

Compound: O=C(Nc1ccc(C2CCCCC2)cc1)c1nc(-c2ccccc2)oc1Cc1ccc(OP(=O)(O)O)cc1
IC50 [8]: 33 µM

Compound: Cc1ccc(S(=O)(=O)N(C)CC(=O)N(Cc2ccc(C3CCCCC3)cc2)c2ccc(C(=O)O)c(O)c2)cc1
IC50 [15]: > 200 µM
Ki [16]: ≥ 50 µM
IC50 [17]: 37 µM
IC50 [18]: > 200 µM
Kd [19]: 2740 nM
IC50 [20]: 48 µM
IC50 [21]: > 200 µM

Compound: O=[N+]([O-])c1ccc2c(c1)S(=O)(=O)C=C2
IC50 [22]: 5.1 µM

Compound: COc1ccc(/C=C/C(=O)C(C)(C)C(=O)/C=C/c2ccc(OC)c(OC)c2)cc1OC
inhibition [24]: 60%

The next lines start with the values.

IC50 [9]: 91 µM
IC50 [10]: 447 µM
Compound: O=C(O)c1ccc(/C=C/C(=O)c2ccc3c(c2)OCCO3)cc1

IC50 [11]: 280 nM
IC50 [12]: 10 µM
Compound: C1=Cc2nc1cc1ccc([nH]1)c(-c1ccccc1)c1nc(cc3ccc([nH]3)c2-c2ccccc2)C=C1

Ki [14]: 50 µM
Compound: Cc1ccc(S(=O)(=O)OCC(=O)N(Cc2ccc(C3CCCCC3)cc2)c2ccc(C(=O)O)c(O)c2)cc1

IC50 [8]: 90 µM
Compound: COc1cccc(NC(=O)c2nc(-c3ccccc3)oc2Cc2ccc(OP(=O)(O)O)cc2)c1

fold change (FC) [23]: 5
Compound: C[C@@H]1CC(=O)c2c(ccc3c2C(=O)c2cccc(O)c2C3=O)C1

Ki [14]: 18.7 µM
Compound: Cc1ccc(S(=O)(=O)N(C)CC(=O)N(Cc2ccc(C3CCN(c4ccc(C#N)cc4)CC3)cc2)c2ccc(C(=O)O)c(O)c2)cc1

EC50 [25]: 3 µM
Compound: O=C(N/N=C/c1ccc([N+](=O)[O-])o1)c1ccc(O)cc1 [NIFUROXAZIDE]

IC50 [8]: 25 µM
Compound: CCCCCCNC(=O)c1nc(-c2cccc3ccccc23)sc1Cc1ccc(OP(=O)(O)O)cc1
